Experimental findings from ChEMBL document CHEMBL2331421, “Amino acid derived quinazolines as Rock/PKA inhibitors” (Bioorg Med Chem Lett, 2013) are described below.

Series [1] deals with Serine/threonine-protein kinase MRCK alpha (Homo sapiens, UniProt Q5VT25). The experiment in a line: Inhibition of MRCKalpha (unknown origin).
In series [2] the target is Mitogen-activated protein kinase 14 (Homo sapiens, UniProt Q16539). Nature of the series: Inhibition of p38alpha (unknown origin).
Series [3] deals with Mitogen-activated protein kinase 9 (Homo sapiens, UniProt P45984). Nature of the series: Inhibition of JNK2 (unknown origin).
Mitogen-activated protein kinase 9, sequence (P45984 whole entry): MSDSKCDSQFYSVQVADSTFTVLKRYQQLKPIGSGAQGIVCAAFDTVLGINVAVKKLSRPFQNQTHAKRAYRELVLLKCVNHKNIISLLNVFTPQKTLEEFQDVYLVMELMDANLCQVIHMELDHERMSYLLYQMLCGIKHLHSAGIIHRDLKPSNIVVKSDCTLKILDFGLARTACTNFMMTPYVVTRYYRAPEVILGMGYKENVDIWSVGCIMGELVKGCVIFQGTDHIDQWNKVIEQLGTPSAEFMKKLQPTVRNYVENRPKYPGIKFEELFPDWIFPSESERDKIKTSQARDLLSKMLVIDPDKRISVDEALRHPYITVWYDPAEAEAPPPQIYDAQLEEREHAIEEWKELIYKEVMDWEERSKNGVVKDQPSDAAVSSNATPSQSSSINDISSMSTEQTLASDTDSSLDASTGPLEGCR
Series [4] deals with Mitogen-activated protein kinase 10 (Homo sapiens, UniProt P53779). The experiment in a line: Inhibition of JNK3 (unknown origin).
Mitogen-activated protein kinase 10, sequence (P53779 whole entry): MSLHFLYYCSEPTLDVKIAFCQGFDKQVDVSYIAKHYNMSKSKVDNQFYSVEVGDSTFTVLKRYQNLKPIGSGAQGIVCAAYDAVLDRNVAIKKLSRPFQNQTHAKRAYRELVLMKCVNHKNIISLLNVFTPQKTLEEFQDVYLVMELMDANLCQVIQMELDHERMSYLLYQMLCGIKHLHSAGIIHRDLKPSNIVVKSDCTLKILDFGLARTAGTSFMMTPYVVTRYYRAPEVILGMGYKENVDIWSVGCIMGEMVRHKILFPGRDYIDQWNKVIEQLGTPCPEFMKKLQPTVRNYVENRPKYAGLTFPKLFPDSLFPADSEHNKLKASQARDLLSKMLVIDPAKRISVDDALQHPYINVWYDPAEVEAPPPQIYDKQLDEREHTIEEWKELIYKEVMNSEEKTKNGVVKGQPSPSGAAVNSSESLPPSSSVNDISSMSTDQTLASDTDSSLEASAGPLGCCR
In series [5] the target is Mitogen-activated protein kinase 8 (Homo sapiens, UniProt P45983). The experiment in a line: Inhibition of JNK1 (unknown origin).
A further series addresses CYP3A4 (Homo sapiens, UniProt P08684). Nature of the series: Inhibition of CYP3A4 (unknown origin) at 10 uM relative to control. In kind it is ADME.
The next series addresses CYP2C9 (Homo sapiens, UniProt P11712). Nature of the series: Inhibition of CYP2C9 (unknown origin) at 10 uM relative to control. In kind it is ADME.
In a further series the target is CYP2D6 (Homo sapiens, UniProt P10635). The experiment in a line: Inhibition of CYP2D6 (unknown origin) at 10 uM relative to control. In kind it is ADME.
In the next series the target is T1, CYP1A2 (Homo sapiens, UniProt P05177).
T1 sequence (P05177 whole entry): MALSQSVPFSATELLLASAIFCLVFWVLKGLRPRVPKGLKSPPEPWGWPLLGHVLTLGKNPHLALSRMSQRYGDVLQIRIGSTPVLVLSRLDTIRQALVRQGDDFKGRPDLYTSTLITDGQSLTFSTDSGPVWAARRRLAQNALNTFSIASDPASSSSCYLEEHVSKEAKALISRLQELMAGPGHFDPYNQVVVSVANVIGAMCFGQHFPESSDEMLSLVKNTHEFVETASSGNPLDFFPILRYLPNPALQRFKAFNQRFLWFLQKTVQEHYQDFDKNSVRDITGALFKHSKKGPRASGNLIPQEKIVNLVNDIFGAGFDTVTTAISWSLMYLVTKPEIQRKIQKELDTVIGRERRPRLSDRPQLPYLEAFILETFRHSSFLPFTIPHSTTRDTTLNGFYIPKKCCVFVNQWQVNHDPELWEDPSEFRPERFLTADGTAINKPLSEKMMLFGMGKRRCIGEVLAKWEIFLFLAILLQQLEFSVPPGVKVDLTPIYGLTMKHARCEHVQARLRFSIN
The experiment in a line: Inhibition of CYP1A2 (unknown origin) at 10 uM relative to control. In kind it is ADME.

Series [6] in a line: Half life in human liver microsomes. In kind it is ADME, Microsome. A general note: Microsomes from liver hold many membrane-bound enzymes, among them those of drug oxidation.
Series [7] in a line: Inhibition of ROCK in rat A7r5 cells assessed as inhibition of myosin light chain bisphosphorylation by Western blot analysis. In kind it is cell-based. For orientation: Immunoblotting shows a protein as a band on a membrane.
Series [8] has as its target Rho-associated protein kinase 1 (Homo sapiens, UniProt Q13464). The experiment in a line: Inhibition of ROCK1 (unknown origin).
Series [9] deals with Rho-associated protein kinase 2 (Homo sapiens, UniProt O75116). Nature of the series: Inhibition of human recombinant 6-His-tagged ROCK2 expressed in baculovirus-infected Sf9 cells using LCB-AKRRRLSSLRA-NH2 as substrate after 25 mins by TR-FRET assay. A general note: Time-resolved FRET reads energy transfer from a long-lived donor to a nearby acceptor.
Series [10] in a line: Inhibition of PKA (unknown origin). Details: species or system Homo sapiens.

Mitogen-activated protein kinase 14, sequence (Q16539 whole entry): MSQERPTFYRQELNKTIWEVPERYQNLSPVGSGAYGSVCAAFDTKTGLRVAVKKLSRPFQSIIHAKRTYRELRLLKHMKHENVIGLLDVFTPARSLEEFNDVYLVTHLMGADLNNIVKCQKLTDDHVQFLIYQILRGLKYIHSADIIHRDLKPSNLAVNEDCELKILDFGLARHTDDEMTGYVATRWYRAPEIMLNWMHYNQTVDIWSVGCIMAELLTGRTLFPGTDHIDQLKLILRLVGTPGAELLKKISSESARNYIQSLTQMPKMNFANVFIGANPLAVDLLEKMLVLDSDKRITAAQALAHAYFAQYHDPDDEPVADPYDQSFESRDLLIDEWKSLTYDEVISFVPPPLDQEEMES
CYP2C9, sequence (P11712 whole entry): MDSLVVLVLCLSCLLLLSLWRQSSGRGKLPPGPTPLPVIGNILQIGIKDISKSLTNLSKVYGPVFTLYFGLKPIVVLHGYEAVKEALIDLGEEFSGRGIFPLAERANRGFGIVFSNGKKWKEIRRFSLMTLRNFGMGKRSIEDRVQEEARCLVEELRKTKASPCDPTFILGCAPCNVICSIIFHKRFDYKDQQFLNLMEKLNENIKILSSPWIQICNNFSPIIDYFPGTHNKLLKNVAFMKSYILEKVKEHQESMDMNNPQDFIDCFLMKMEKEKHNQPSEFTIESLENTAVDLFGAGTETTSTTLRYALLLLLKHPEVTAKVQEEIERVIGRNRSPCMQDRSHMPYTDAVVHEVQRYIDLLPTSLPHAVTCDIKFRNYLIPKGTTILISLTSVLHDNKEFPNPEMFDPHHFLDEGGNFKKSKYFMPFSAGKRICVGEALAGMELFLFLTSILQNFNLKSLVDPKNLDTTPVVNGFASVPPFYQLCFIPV
Serine/threonine-protein kinase MRCK alpha, sequence (Q5VT25 whole entry): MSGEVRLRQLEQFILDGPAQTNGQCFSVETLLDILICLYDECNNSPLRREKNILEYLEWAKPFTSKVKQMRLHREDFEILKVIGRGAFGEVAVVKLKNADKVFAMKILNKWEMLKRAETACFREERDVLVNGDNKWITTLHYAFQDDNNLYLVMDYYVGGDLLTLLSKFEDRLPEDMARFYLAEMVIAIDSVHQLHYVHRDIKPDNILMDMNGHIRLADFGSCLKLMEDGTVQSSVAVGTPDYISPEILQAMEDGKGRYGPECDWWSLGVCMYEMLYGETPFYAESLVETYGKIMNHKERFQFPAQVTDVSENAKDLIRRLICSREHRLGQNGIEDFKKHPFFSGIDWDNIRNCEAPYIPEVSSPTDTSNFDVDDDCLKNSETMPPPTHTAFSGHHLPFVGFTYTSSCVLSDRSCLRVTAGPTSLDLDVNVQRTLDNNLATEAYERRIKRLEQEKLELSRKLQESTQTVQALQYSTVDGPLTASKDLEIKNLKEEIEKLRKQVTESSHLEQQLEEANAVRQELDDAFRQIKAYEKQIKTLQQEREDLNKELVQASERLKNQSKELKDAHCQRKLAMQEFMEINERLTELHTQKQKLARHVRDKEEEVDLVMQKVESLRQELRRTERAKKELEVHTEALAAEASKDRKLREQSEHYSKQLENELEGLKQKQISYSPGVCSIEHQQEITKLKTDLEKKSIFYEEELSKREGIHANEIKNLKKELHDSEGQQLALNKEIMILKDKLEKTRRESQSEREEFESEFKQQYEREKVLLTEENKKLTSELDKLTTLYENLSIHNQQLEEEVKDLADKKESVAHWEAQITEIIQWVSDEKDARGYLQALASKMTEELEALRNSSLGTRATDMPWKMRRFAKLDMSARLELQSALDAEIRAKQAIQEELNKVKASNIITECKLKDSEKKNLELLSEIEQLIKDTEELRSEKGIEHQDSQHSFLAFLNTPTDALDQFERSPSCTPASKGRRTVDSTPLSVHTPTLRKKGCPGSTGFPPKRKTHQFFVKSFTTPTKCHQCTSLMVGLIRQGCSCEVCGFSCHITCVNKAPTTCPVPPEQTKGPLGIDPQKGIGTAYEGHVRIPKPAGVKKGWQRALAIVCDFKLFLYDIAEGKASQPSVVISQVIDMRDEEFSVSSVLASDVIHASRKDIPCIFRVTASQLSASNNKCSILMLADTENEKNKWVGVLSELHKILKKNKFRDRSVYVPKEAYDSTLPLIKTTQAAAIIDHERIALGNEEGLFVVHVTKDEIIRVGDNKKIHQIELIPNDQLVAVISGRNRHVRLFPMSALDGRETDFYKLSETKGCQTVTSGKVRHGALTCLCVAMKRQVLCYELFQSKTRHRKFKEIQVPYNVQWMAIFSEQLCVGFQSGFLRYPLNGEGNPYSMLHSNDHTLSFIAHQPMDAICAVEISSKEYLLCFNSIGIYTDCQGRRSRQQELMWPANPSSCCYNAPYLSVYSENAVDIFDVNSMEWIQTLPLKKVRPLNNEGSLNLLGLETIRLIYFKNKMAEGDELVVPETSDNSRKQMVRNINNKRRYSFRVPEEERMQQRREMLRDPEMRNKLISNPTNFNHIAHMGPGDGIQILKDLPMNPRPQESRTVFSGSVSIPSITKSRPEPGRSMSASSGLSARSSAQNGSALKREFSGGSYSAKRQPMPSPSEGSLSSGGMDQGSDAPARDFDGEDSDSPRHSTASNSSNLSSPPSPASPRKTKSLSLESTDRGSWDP
Rho-associated protein kinase 1, sequence (Q13464 whole entry): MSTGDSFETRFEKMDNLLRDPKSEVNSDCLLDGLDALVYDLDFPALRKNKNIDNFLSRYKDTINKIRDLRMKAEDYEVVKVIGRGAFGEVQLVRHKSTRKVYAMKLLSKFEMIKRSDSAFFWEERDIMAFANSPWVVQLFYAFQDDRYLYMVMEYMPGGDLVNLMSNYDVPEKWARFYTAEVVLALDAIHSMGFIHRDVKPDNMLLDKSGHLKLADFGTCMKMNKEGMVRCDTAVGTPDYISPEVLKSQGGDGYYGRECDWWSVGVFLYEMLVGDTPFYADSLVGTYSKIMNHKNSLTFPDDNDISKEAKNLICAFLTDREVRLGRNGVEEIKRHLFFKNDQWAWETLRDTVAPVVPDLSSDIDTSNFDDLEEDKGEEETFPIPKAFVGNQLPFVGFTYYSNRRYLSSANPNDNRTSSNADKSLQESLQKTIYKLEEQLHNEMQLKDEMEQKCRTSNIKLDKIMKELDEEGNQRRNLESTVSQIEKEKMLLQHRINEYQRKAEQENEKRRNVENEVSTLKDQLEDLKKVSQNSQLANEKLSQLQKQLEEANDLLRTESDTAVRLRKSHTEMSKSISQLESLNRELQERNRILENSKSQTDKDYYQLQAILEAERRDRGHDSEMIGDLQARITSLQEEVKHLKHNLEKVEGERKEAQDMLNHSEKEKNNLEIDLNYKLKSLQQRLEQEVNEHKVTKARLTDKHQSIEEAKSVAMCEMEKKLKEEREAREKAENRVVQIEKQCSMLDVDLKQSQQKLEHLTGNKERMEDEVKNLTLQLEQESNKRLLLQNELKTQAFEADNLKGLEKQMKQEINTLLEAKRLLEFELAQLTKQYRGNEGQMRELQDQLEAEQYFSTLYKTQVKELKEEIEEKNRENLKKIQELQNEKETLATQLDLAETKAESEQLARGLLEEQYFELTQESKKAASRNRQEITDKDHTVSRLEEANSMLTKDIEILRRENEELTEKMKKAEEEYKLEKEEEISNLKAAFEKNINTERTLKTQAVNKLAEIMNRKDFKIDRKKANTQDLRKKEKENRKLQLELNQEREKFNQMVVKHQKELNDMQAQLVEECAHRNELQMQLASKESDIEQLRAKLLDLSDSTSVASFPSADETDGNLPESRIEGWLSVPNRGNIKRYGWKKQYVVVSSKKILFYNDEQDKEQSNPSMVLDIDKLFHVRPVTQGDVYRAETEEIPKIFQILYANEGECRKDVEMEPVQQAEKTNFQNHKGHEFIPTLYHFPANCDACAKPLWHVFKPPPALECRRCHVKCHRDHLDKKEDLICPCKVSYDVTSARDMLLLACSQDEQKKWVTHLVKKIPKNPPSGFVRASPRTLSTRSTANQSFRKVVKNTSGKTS

Turning to `NC(c1cccc(Cl)c1)c1nc2ccc(-c3cn[nH]c3)cc2c(=O)[nH]1` (stereo unspecified), the IC50 (in general, the concentration that gives 50% inhibition) was over 1000 nM in series [1]; over 1000 nM in series [2]; over 1000 nM in [3]; over 1000 nM in series [4]; over 1000 nM in series [5]; 91 nM in series [7]. Moreover, the IC50 in series [8] was 15 nM; in [9], 13 nM. The inhibition (usually the share of the control response that was lost under treatment) at 10 µM against CYP3A4 worked out at 75%; against CYP2C9, 84%; against CYP2D6 it was 89%; on CYP1A2, 18%. For the same compound, in series [6], the half-life (as a rule, the time in which the quantity being followed falls by half) came out at 46 min.
On to `CN(C)c1nc([C@@H]2CNC[C@H]2c2ccccc2)nc2ccc(-c3cn[nH]c3)cc12`, for which the IC50 in [1] was over 1000 nM; in series [2], over 1000 nM; in [3], over 1000 nM; in series [4], over 1000 nM; in series [5], over 1000 nM; in [7], 800 nM. Besides, the values for the IC50 in series [10] and in [9] were 279 nM and 2.5 nM, respectively. The inhibition at 10 µM against CYP3A4 was determined as 77%; against CYP2C9, 47%; against CYP2D6 it was 88%; against CYP1A2 it was 49%. This compound also gave a half-life in [6] of 86 min.
On to `COc1cc(-c2cn[nH]c2)cc2c(=O)[nH]c([C@H](N)Cc3cccc(F)c3)nc12`, for which the IC50 in series [1] is over 1000 nM; in series [2], over 1000 nM; in series [3], over 1000 nM; in [4] it was over 1000 nM; in series [5], over 1000 nM; in series [7], 470 nM. The IC50 in [8] amounted to 7 nM; in series [10] it was 24 nM; in [9], 7 nM. The inhibition at 10 µM at CYP3A4 is 63%; against CYP2C9 it was 10%; against CYP2D6, 57%; on CYP1A2, 34%. In series [6], this compound gave a half-life of 36 min.
Regarding `N[C@@H](Cc1ccc(F)cc1)c1nc2ccc(-c3cn[nH]c3)cc2c(=O)[nH]1`, the IC50 in [1] is over 1000 nM; in [2] it was over 1000 nM; in series [3], over 1000 nM; in series [4] it was over 1000 nM; in series [5] it was over 1000 nM; in series [7] it was 300 nM. Moreover, the IC50 in series [8] came out at 17 nM; in [10], 16 nM; in [9] it was 9 nM. For the same compound, the inhibition at 10 µM worked out at 31% at CYP3A4, 38% against CYP2C9, 89% on CYP2D6 and 12% at CYP1A2. The compound also yielded a half-life in series [6] of 42 min.
Take `CN(C)CC(=O)NC(c1ccc(Cl)cc1)c1nc2ccc(-c3cn[nH]c3)cc2c(=O)[nH]1` (stereo unspecified): the IC50 is over 1000 nM in series [1]; over 1000 nM in series [2]; over 1000 nM in series [3]; over 1000 nM in [4]; over 1000 nM in [5]; 500 nM in [7]. Further, the half-maximal inhibitory concentration (IC50) in series [8] is under 1 nM; in series [10], 7 nM; in series [9], under 1 nM. The inhibition at 10 µM against CYP3A4 is 23%; at CYP2C9, 83%; on CYP2D6, 55%; at CYP1A2, 10%. This compound showed a half-life in series [6] of 15 min.
For the compound `N[C@@H](Cc1ccc(Cl)cc1)c1nc2ccc(-c3cn[nH]c3)cc2c(=O)[nH]1`, the IC50 was over 1000 nM in series [1]; over 1000 nM in series [2]; over 1000 nM in series [3]; over 1000 nM in [4]; over 1000 nM in [5]; 300 nM in [7]. The IC50 in series [10] turned out to be 7 nM; in [9], 6 nM. For the same compound, the inhibition at 10 µM against CYP3A4 was 42%; on CYP2C9 it was 54%; against CYP2D6 it was 78%; at CYP1A2 it was 51%. For the same compound, the half-life in series [6] is 47 min.
